The text below walks through data of US5726156A, “Cytokine regulatory agents and methods of use in pathologies and conditions associated with altered cytokine levels” (Trega Biosciences, Inc., priority 1995, dated 1998).

Assay [1] relates to inducible nitric oxide synthase (iNOS). The assay is described as follows: Inducible nitric oxide synthase (iNOS), cGMP accumulation in rat aorta smooth muscle cells. It is filed as cell-based. The following applies: RASMC induced with LPS, IL-1β or TNF-α; 0.1 or 1 μM EX-2. On the procedure:
Rat aorta smooth muscle cells (RASMC) were isolated from male rats (325-350 g) using the previously published procedures of Gelsterfer et al., Circ. Res. 62:749-756 (1988), which is incorporated herein by reference. Cells were positively identified as smooth muscle cells by indirect immunofluorescent staining for anti-α-actin, using a mouse anti-α-actin antibody and anti-mouse IgG FITC conjugate. Cells were grown in T-75 tissue culture flasks (Corning Delbelco's Glass, Inc.; Corning, NY) in 50% F12 and 50% Delbelco's Modified Eagle Medium (DMEM) supplemented with 10% bovine serum, 0.2 g/1 L-glutamine, penicillin (100 U/ml) and streptomycin (0.1 mg/ml).
Cells between passages 1-5 were pretreated with one of the following: vehicle, LPS (1 μg/ml), IL-1β (10 U/ml), or TNF-α (100 U/ml) for 6 hr. […] Accumulation of cGMP was determined following exposure to 0.3 mM 3-isobutyl-1-methyl xanthine (IBMX in the presence or absence of 1 mM L-arginine. Medium was then rapidly aspirated and 500 μl of 0.1N HCl was added to each well to stop the reactions and extract cGMP. Thirty min later, the HC1 extract was collected and cell remnants removed from the wells by adding hot 1.0N NaOH and scraping the well with a rubber policeman. The HCl extract was analyzed for cGMP by RIA and the NaOH-solubilized cell remnants were used for protein determination. […]

Assay [2] relates to STZ diabetes, blood glucose. The assay is described as follows: Streptozotocin-induced diabetes. It counts as in vivo, rats. The following applies: 150 μg/kg every 8 hr for 72 hr; STZ 65 mg/kg iv. On the procedure:
Male Sprague-Dawley rats were given 65 mg/kg of streptozotocin (STZ) intravenously through the tall vein. Rats were divided into two groups. The first group was administered EX-2, 150 μg/kg every 8 hr for 72 hr and the second group was a control. Blood samples were withdrawn under ether anesthesia every 8 hr for the first 72 hr, then every 12 hr or 24 hr until the end of the observation period. Plasma samples were assayed for glucose using a glucose assay kit (Trinder, Sigma Chemical Co.). As shown in Table VI below EX-2 effect a 72% reduction in blood glucose levels.

For a further assay, the system named is Zucker NIDDM diabetes. Nature of the assay: Heritable diabetes, Zucker NIDDM rats. The conditions noted are these: 25 μg/kg every 8 hr for approximately three months. It counts as in vivo. On the procedure: Male Zucker rats are a well established rat model for heritable non-insulin dependent diabetes mellitus (NIDDM), as described, for example, by Ward et al., Ann. Clin. Lab. Sci., 24:266-277, (1994), which is incorporated herein by reference. Eighteen male Zucker rats were used to study the effects of EX-2 on NIDDM, a chronic disease. The rats were placed into two groups and received either saline or 25 μg/kg EX-2 every 8 hr for approximately three months. Blood samples were collected by tail clip and urine samples were collected by placing animals in metabolic cages fro 24 hr. Plasma insulin was assayed using an RIA kit (Amersham Life Sciences, Arlington Heights, Ill.). Urine protein was assayed for using a commercial protein assay kit (Coomassie Plus, Pierce, Rockford, Ill.). Body weighed measurements were made with a Mettler Toledo top loader balance.

Assay [3] is described as follows: Reduction in body weight, Zucker fa/fa and Fa/+ rats. It is filed as in vivo. The procedure: Adult Zucker fatty rats (fa/fa; 325-350 g) or non-obese Zucker rats (Fa/+; 250-275 g) each were divided into two groups. One group each of fa/fa and Fa/+ rats received intraperitoneal (ip) injections of 250 μg/kg EX-2, 3×/day, for 86 days, followed by 2×/day treatments for an additional 29 days. The other group of fa/fa and Fa/+rats received saline on the same schedule.
Administration of EX-2 caused a significant decrease in the weight gain of fa/fa and of Fa/+ rats (see FIG. 4). Specifically, saline treated fa/fa rats gained about 360 g during the […], whereas EX-2 treated fa/fa rats only gained 275 g, representing a 24% decrease in weight gain. […] In Fa/+ rats, the decreased weight gain was more modest, but again correlated to fat mass rather than lean muscle mass.
In other experiments, fa/fa rats received 0.5-10 mg/kg EX-2, 2×/day, for 14 days (1-20 mg/day). […] This weight loss correlated with […] consumption by the EX-2 treated rats as compared to the controls.

“Ac-Nle-Gln-His-(D)Phe-Arg-(D)Trp-Gly-NH2 [EX-2]”: the “% Reduction of induced increase, iNOS, cGMP (pmol/100 mg/15 min)” value in assay [1] stood at 60%. Besides, in assay [2], the “% Reduction, STZ Diabetes, Blood Glucose (mg/dl)” value was found to be 72%. Moreover, in the assay on Zucker NIDDM diabetes, the “% Reduction, Zucker NIDDM Diabetes, Body Weight (grams)” value is reported as 32%; the “% Reduction, Zucker NIDDM Diabetes, Insulin (ng/ml)” value is 39%; the “% Reduction, Zucker NIDDM Diabetes, Urine Protein (mg/24 hr)” value came out at 87%; the “decrease in body weight” value is on record as “approximately 100 gram”. Besides, the decreased weight gain entry in assay [3] (Fa/+ (non-obese) rats, 250 μg/kg ip) is reported as “more modest”. For the same substance, the “epididymal fat pad weight” value in assay [3] (fa/fa rats, 250 μg/kg ip) was “decreased epididymal fat pad weight”. This substance yielded a body weight gained in assay [3] (fa/fa rats, 250 μg/kg ip 3×/day then 2×/day, 105 day treatment, saline about 360 g) of 275 g. The “decrease in weight gain” value in assay [3] (fa/fa rats, 250 μg/kg ip, vs saline treated) worked out at 24%. Further, the “decrease in body weight” value in assay [3] (fa/fa rats, 20 mg EX-2/day (10 mg/kg 2×/day), 14 days) was approximately 10%. Moreover, in assay [3] (fa/fa rats, 0.5-10 mg/kg 2×/day, 14 days, each group), the “rate of weight gain” value is recorded as “decreased rate of weight gain”.
